“Also recorded” adds a separate entry of the source. Where two headings read alike, the source gives them in different places.
Assays:
[1] = test system: C-fibers of rabbit vagus nerve; test: Extracellular recording of compound action potentials (APc), desheathed vagus nerve, C-fibers; parameters: species or system New Zealand white rabbit; settings: for inhibition at 0.5 µM: 1 h, mean ± SEM; for inhibition at 0.5 µM / activity at 0.5 µM: 0.5 μM VTD; for activity at 0.5 µM: read-out: Amplitude of single APc elevation relative to amplitude at beginning of VTD exposure
Protocol: (§1) Adult male New Zealand white rabbits (3±0.5 kg) were pretreated intramuscularly with a mixture of ketamine (200 mg), xylazine (20 mg) and atropine (0.4 mg) for sedation. Ten minutes after this treatment, the animals were anesthetized with diethyl ether. After cessation of respiration, a longitudinal skin incision was made, and the cervical portion of both vagus nerves was dissected. The vagus nerves were temporarily stored at room temperature (22° C.) in a beaker containing modified HEPES Liley (HL) solution stirred constantly by aeration with a mixture of 95% oxygen and 5% carbon dioxide.
(§2) The modified HL solution used for bathing the nerve and subsequent drug perfusion consisted of (in mM): NaCl, 118.0; KCl, 5.0; CaCl2 2H2 0, 2.0; MgCl2 6H2 0, 1.0; α-D(+)-glucose, 11.0; NaHC03, 25.0; and N-2-hydroxy-ethylpiperazine-N-2-ethanesulfonic acid (HEPES) buffer, 5.0 mM. The pH was adjusted to 7.4±0.05 by addition of 1 N NaOH. The perfusion solution was bubbled with a gas mixture of 95% oxygen and 5% carbon dioxide at a vigorous rate just before flowing onto the nerve. The pH was stabilized by the HEPES buffer and maintained at 7.4.
(§3) VTD free base (no. V-5754, lot 58F-7828, Sigma, St. Louis, Mo.) was stored in a desiccator below 0° C. and was used to prepare a 2 mM stock solution in dimethyl sulfoxide [DMSO], Fisher Scientific, lot 861316), which also was stored at below 0° C. VTD, a steroidal alkaloid (FIG. 2A) that is produced by certain lilies, has a solubility limited to approximately 10^-3 M in aqueous slat solutions [Kupchan and By, "The Veratrum Group," in Alkaloids, Vol. 10, Manske, R.H.F. (ed.), New York, Academic Press (1968), pp. 193-285]. The stock VTD solution was diluted to final concentrations of 0.2-10 μM by the addition of HL. The maximum equivalent content of DMSO is 0.5%, and in three control experiments we detected no change in electrophysiologic behavior with 1% DMSO.
(§4) The nerves were cleaned and desheathed by microdissection before mounting in an airtight chamber (FIG. 2B) [Gissen et al., Anesthesiology 53:467-474 (1980)]. Petroleum jelly (White Petrolatum, Denison Laboratories) seals separated a central, 11-mm length of the nerve from the lateral pools, used for stimulating and recording with electrodes made of platinum wire. The central section of the chamber (volume 0.25 ml) was perfused with HL solution at 0.5 ml.min.^-1. The lateral pools containing the moistened ends of the nerves adsorbed to the electrodes were filled with paraffin oil. The APc s were propagated over 21 mm, from the stimulating to the recording electrodes, with the proximal recording electrodc located 4.5 mm from the edge of the central, drug exposure chamber. Thus, measured APc s were conducted in nerve exposed to drug for half of the conduction pathway, and had been conducting through drug-free medium over a distance containing at least two or three nodes of Ranvier (in the fastest-conducting fibers), before reaching the recording electrodes.
(§5) The signal from the nerve was amplified 50 times (model AK 475 operational amplifier, Metametrics, Carlisle, Mass.) and passed to the oscilloscope preamplifiers (model 5A 22N, Tektronix). The preparation was not considered acceptable unless the APc signals from the nerve exceeded 1.5 mV for A-fibers, 0.5 mV for B-fibers, and 0.3 mV for C-fibers.
(§6) Each nerve was exposed to only one VTD concentration, and each concentration was tested in four or five separate nerves, except in tie sheathed nerves, for which only two nerves were used. The temperature was 20°-22° C.
(§7) The standard protocol used for testing the action of VTD was to record the APc elevations in control HL solution for 30-60 min. before adding VTD; for 60-75 min. during VTD application; and for 60-75 min. after replacement with VTD-free HL. […]

[2] = test system: vagus nerve with intact sheath (C-fibers); test: Extracellular recordings from sheathed nerves; parameters: species or system rabbit
Protocol: as §4, §5, §6
We tested the ability of VTD to penetrate the tissues ensheathing the vagus nerve. Nerves with intact sheaths were arranged in the same extracellular recording chamber as had been used for the desheathed nerve studies just described. Because of the electrical isolating qualities of the sheath, stimulus requirements are greater and the recorded APC s are smaller, but have the same latency from stimulation as in the desheathed nerves. […] However, the onset of the effect was much slower and the VTD dose requirement much higher: 2 μM VTD took approximately 30 min. to affect the C-fibers detectably, and 10 μM took approximately 15 min. This is expected in a lipophilic base for which more than 90%, on average, of the drug molecules are ionized [Kupchan and By, "The Veratrum Group," in Alkaloids, Vol. 10, Manske, R.H.F. (ed.), New York, Academic Press (1968), pp. 193-285].

[3] = test system: angiotensin II receptors; settings: reported by Ball et al.; cited from earlier work
[4] = test system: A-fibers of rabbit vagus nerve; test: Extracellular recording of compound action potentials (APc), desheathed vagus nerve, A-fibers; parameters: species or system New Zealand white rabbit; settings: for inhibition at 0.5 µM / activity at 0.5 µM: Oryctolagus cuniculus, 0.5 μM VTD; for inhibition at 0.5 µM: 1.25 h, mean ± SEM; for activity at 0.5 µM: read-out: Amplitude of single APc elevation relative to amplitude at beginning of VTD exposure
Protocol: as §1, §2, §3, §4, §5, §6, §7

[5] = on average; cited from earlier work

COc1ccc(C(=O)OC2CCC3(C)C4CCC5C6(O)CC(O)C7(O)C(CN8CC(C)CCC8C7(C)O)C6(O)CC53OC24O)cc1OC (centres unmarked) [VTD, veratridine]
Use-dependent reduction of APc by VTD, C-fibers ([1]; 0-2.0 μM (FIG. 7C), at relatively low frequencies): diminished most; also recorded: greatest for the C-fiber component
Use-dependent inhibition and slowing of C-fiber APc ([1]; 2 μM VTD, 5 Hz, second through tenth APc, 15-20 min. exposure): slowed conduction and reduced amplitude
Single-stimulus APc after VTD compared with no-VTD controls ([1]; C-fibers, 0.5 μM, 60 min. in VTD, P<0.005): significant enhancement
Longer latency of the second wave vs the first wave ([1]; C-fibers, 2 μM VTD, 5 Hz (FIG. 6B)): about 20%
Reversal of use-dependent depression by washing ([1]; C-fibers, VTD-free HL wash): partial reversal
Recovery time of APc after stimulation ceased ([1]; C-fibers, sometimes as long as, depending on VTD concentration): 1 to 2 min
inhibition at 0.5 µM ([1]; Oryctolagus cuniculus, C-fibers, 10 Hz, after 60 min. in VTD, P < 0.001 vs control, read-out: Percent inhibition of the tenth APc in a train compared to the first, VTD): 54.6 ± 3.8%
inhibition at 0.5 µM ([1]; Oryctolagus cuniculus, C-fibers, 10 Hz, after 60 min. wash, read-out: Percent inhibition of the tenth APc in a train compared to the first, HL (Wash)): 34.6 ± 3.8%
activity at 0.5 µM ([1]; Oryctolagus cuniculus, C-fibers, during VTD exposure): 111 ± 5%
activity at 0.5 µM ([1]; Oryctolagus cuniculus, C-fibers, wash period): 133 ± 15%
inhibition at 0.2 µM ([1]; Oryctolagus cuniculus, 0.2 μM VTD, 10 Hz, after about 1 h of wash-out, read-out: C-fiber use-dependent inhibition after VTD wash-out): 22%
Time to affect the C-fibers detectably, sheathed nerve ([2]; 2 μM VTD): approximately 30 min.
Time to affect the C-fibers detectably, sheathed nerve ([2]; 10 μM VTD): approximately 15 min.
Use-dependent reduction as % of that achieved at steady state on a desheathed nerve by 0.2 μm VTD ([2]; 10 Hz, 60-min. exposure to 10 μm VTD): approximately 30%
C-fiber elevation / APc inhibition in sheathed nerves ([2]; intact sheath): inhibited selectively; also recorded: progressively inhibited in a use-dependent fashion
Reduction of rate of penetration into the nerve by the sheath ([2]; sheathed vs desheathed nerve): at least 50 fold
Rate of VTD action with intact nerve sheath ([2]; vs desheathed nerves): far less than in desheathed nerves
Duration of steady-state effect in drug-free solution ([2]; wash-out period after 75 min. exposure, both nerves tested, up to): up to 3 h
Inhibition of angiotensin II receptors [3]: selective inhibitor of angiotensin II receptors
Response of A-fibers during repetitive stimulation compared with drug-free solutions ([4]; 2 μM VTD, 100-Hz stimulation): almost identical to that in drug-free solutions before and after VTD exposure
Single-stimulus APc after VTD compared with no-VTD controls ([4]; A-fibers, 0.5 μM, 60 min. in VTD, P>0.05): no significant difference
Decline of APc elevation at the second stimulation ([4]; A-fibers, 2 μM VTD, 100 Hz, normal refractory behavior): about 15%
Reversal of use-dependent depression by washing ([4]; A-fibers, VTD-free HL wash): did not reverse
inhibition at 0.5 µM ([4]; A-fibers, 100 Hz, after 75 min. in VTD, P < 0.001 vs control, read-out: Percent inhibition of the tenth APc in a train compared to the first, VTD): 25.3 ± 3.5%
inhibition at 0.5 µM ([4]; A-fibers, 100 Hz, after 75 min. of wash, read-out: Percent inhibition of the tenth APc in a train compared to the first, HL (Wash)): 27 ± 2.8%
activity at 0.5 µM ([4]; A-fibers, during VTD exposure): 117 ± 7%
activity at 0.5 µM ([4]; A-fibers, wash period): 123 ± 14%
Use-dependent reduction of APc by VTD, A-fibers ([4]; up to 2 μM): modified little; also recorded: inconsequential for A-fibers
Fraction of drug molecules ionized [5]: more than 90%
